Experimental data: patent publication US7771977B2, “Alkane polyol dehydrogenase” (National University Corporation Nara Institute of Science …, priority 2006, dated 2010)
“Also recorded” adds a separate entry of the source. Like-named read-outs stand apart in the source and are kept apart here.

Legend:
[1] = test system: alkane polyol dehydrogenase (purified enzyme); assay type: biochemical, Pichia ofunaensis
Method: (§1) The reaction solutions were prepared using plural substrates with varied concentrations. Each solution contained a substrate, 2 mM NAD^+, and an enzyme, and was allowed to react in a 100 mM potassium phosphate buffer solution (pH 8.0) at 25° C. Then, changes in absorbance (molar absorption coefficient 6,220 M^−1·cm^−1) at 340 nm due to the NADH formation were measured. 1 U is defined as an enzyme amount for catalyzing 1 μmol NADH formation per minute.
(§2) The alkane polyol dehydrogenase obtained in Example 1 was utilized to measure the enzyme activities in the following manner.
(§3) 1 U was defined as the amount of enzyme that catalyzes the formation of 1 μmol of NADH per minute.
(§4) Measurement was performed in the same manner as in the activity measurements described earlier in 4-1.
Such activity was measured by causing a reaction mixture containing 5 mM (R)-1,2-octanediol, 2 mM NAD^+ and enzyme to react in a 100 mM potassium phosphate buffer solution (pH 8.0) at 25° C., then observing the change, due to NADH formation, of absorbance (molecular absorption coefficient 6,220 M^−1 ·cm^−1) at 340 nm. 1 U was defined as the amount of enzyme that catalyzes the formation of 1 μmol of NADH per minute.

[2] = test system: E. coli HB101 (pSE420D); assay: Substrate specificity, comparison transformant E. coli HB101 (pSE420D) without the enzyme gene; assay type: biochemical, Escherichia coli; settings: for Activity, E. coli HB101 (pSE-420D): comparison transformant, substrate 100 mM, 2 mM NAD+, pH 8.0, 25° C.
Method: as §3
(§5) The substrate specificity of the protein of the present invention was analyzed using the purified enzyme obtained in Example 1 and the transformant (E. coli HB101 (pSE-HOG)) obtained in Example 3. For comparison, the same analysis was conducted with respect to a transformant (E. coli HB101 (pSE420D)) that was produced in the same manner as for E. coli HB101 (pSE-HOG), except that the plasmid (pSE420D) in which the relevant enzyme gene was not inserted was used.
as §4

[3] = test system: alkane polyol dehydrogenase expressed in E. coli HB101 (pSE-HOG); assay: Substrate specificity, cell extract of transformant E. coli HB101 (pSE-HOG); assay type: biochemical, Pichia ofunaensis; settings: for dehydrogenation (oxidative) activity of E. coli HB101 (pSE-HOG), in words: Table 4; for Activity, E. coli HB101 (pSE-HOG): cell extract, 2 mM NAD+, pH 8.0, 25° C.
Method: The Escherichia coli HB101 strain containing the pSE-HOG was cultivated in LB medium containing ampicillin. When the absorbance at 600 nm was 0.5, 0.1 mM IPTG was added thereto. Six hours after the addition, cells were harvested by centrifugal separation.
The obtained cells were suspended in a cell disruption solution (100 mM potassium phosphate buffer solution (pH 8.0)). The cell bodies therein were disrupted using a mini bead beater (produced by BioSpec Products), then subjected to centrifugal separation for 10 minutes under an acceleration of 16,000 g. Thereby, the supernatant thereof as a cell extract was obtained.
as §3, §5, §4

[4] = test system: alkane polyol dehydrogenase (purified enzyme); assay: Reduction activity measurement with purified alkane polyol dehydrogenase (NADH reduction at 340 nm); assay type: biochemical, Pichia ofunaensis; settings: for Reduction Activity: 0.2 mM NADH, pH 6.0, 25° C.; for reduction activity of the purified enzyme, in words: Table 3
Method: as §1, with “substrate, 0.2” for “substrate, 2”, “mM NADH,” for “mM NAD^+,”, “(pH 6.0)” for “(pH 8.0)”, “NADH reduction” for “NADH formation”, “per minutes.” for “per minute.”
as §2
1 U was defined as the amount of enzyme that catalyzes the reduction of 1 μmol of NADH per minute.

[5] = purified enzyme, Tables 2 and 4
[6] = purified enzyme, substrate 100 mM, 2 mM NAD+, pH 8.0, 25° C.

CCC(O)CO (stereo not drawn) [1,2-Butanediol]
oxidative (dehydrogenation) activity of the purified enzyme, in words [1, 5]: well-oxidized | Oxidative Activity [1, 6]: 61.0 U/mg

CCCCCC(O)CO (stereo not drawn) [1,2-Heptanediol]
oxidative (dehydrogenation) activity of the purified enzyme, in words [1, 5]: well-oxidized | Oxidative Activity ([1]; purified enzyme, substrate 10 mM, 2 mM NAD+, pH 8.0, 25° C.): 27.8 U/mg

CCCCC(O)CO (stereo not drawn) [1,2-Hexanediol]
oxidative (dehydrogenation) activity of the purified enzyme, in words [1, 5]: well-oxidized | Oxidative Activity [1, 6]: 38.4 U/mg

CCCCCCC(O)CO (stereo not drawn) [1,2-Octanediol]
oxidative (dehydrogenation) activity of the purified enzyme, in words [1, 5]: well-oxidized | oxidative (dehydrogenation) activity of the purified enzyme, in words ([1]; purified enzyme, Tables 2 and 4, listed as (R,S)-1,2-octanediol): excellent dehydrogenation activity; also recorded: show an oxidative activity | Oxidative Activity ([1]; purified enzyme, substrate 5 mM, 2 mM NAD+, pH 8.0, 25° C.): 64.3 U/mg | dehydrogenation activity of E. coli HB101 (pSE420D), in words ([2]; Table 4): does not show the dehydrogenation activity | dehydrogenation (oxidative) activity of E. coli HB101 (pSE-HOG), in words ([3]; listed as (R,S)-1,2-octanediol): excellent dehydrogenation activity; also recorded: show an oxidative activity | Activity, E. coli HB101 (pSE-HOG) ([3]; substrate 5 mM): 0.53 U/mg

CCCC(O)CO (stereo not drawn) [1,2-Pentanediol]
oxidative (dehydrogenation) activity of the purified enzyme, in words [1, 5]: well-oxidized | Oxidative Activity [1, 6]: 99.3 U/mg

CC(O)CO (stereo not drawn) [1,2-Propanediol]
oxidative (dehydrogenation) activity of the purified enzyme, in words [1, 5]: well-oxidized; also recorded: high dehydrogenation activity | Oxidative Activity [1, 6]: 71.7 U/mg | dehydrogenation (oxidative) activity of E. coli HB101 (pSE-HOG), in words [3]: high dehydrogenation activity

CC(O)CCO (stereo not drawn) [1,3-Butanediol]
oxidative (dehydrogenation) activity of the purified enzyme, in words [1, 5]: only a weak oxidative activity | Oxidative Activity [1, 6]: 6.0 U/mg

CCCCO [1-Butanol]
oxidative (dehydrogenation) activity of the purified enzyme, in words [1]: did not have oxidative activity

CCC(=O)CO [1-Hydroxy-2-butanone]
Reduction Activity ([4]; substrate 100 mM): 5.84 U/mg

CCCCCO [1-Pentanol]
oxidative (dehydrogenation) activity of the purified enzyme, in words [1, 5]: did not have oxidative activity

CCCO [1-Propanol]
oxidative (dehydrogenation) activity of the purified enzyme, in words [1]: did not have oxidative activity

CC(O)C(C)O (stereo not drawn) [2,3-Butanediol]
oxidative (dehydrogenation) activity of the purified enzyme, in words [1, 5]: well-oxidized; also recorded: high dehydrogenation activity | Oxidative Activity [1, 6]: 50.0 U/mg | dehydrogenation (oxidative) activity of E. coli HB101 (pSE-HOG), in words [3]: high dehydrogenation activity

CCCC(=O)C(C)=O [2,3-Hexanedione]
reduction activity of the purified enzyme, in words [4]: high reduction activity | Reduction Activity ([4]; substrate 5 mM): 67.5 U/mg

CCC(=O)C(C)=O [2,3-Pentanedione]
reduction activity of the purified enzyme, in words [4]: high reduction activity | Reduction Activity ([4]; substrate 5 mM): 73.8 U/mg

CC(O)CC(C)O (stereo not drawn) [2,4-Pentanediol]
oxidative (dehydrogenation) activity of the purified enzyme, in words [1, 5]: only a weak oxidative activity | Oxidative Activity [1, 6]: 2.53 U/mg

CC(O)CCC(C)O (stereo not drawn) [2,5-Hexanediol]
oxidative (dehydrogenation) activity of the purified enzyme, in words [1, 5]: only a weak oxidative activity | Oxidative Activity [1, 6]: 0.77 U/mg

CCC(C)O (stereo not drawn) [2-Butanol]
oxidative (dehydrogenation) activity of the purified enzyme, in words [1]: weak oxidative activity | Oxidative Activity ([1]; pH 8): <0.1 U/mg

CCC(C)=O [2-Butanone]
Reduction Activity ([4]; substrate 100 mM): 0.40 U/mg

CCCCCC(C)O (stereo not drawn) [2-Heptanol]
oxidative (dehydrogenation) activity of the purified enzyme, in words [1, 5]: no activity was observed

CCCCCCC(C)O (stereo not drawn) [2-Octanol]
oxidative (dehydrogenation) activity of the purified enzyme, in words [1, 5]: no activity was observed

CCCC(C)=O [2-Pentanone]
Reduction Activity ([4]; substrate 100 mM): 3.71 U/mg

CCC(=O)C(=O)CC [3,4-Hexanedione]
reduction activity of the purified enzyme, in words [4]: high reduction activity | Reduction Activity ([4]; substrate 5 mM): 32.8 U/mg

CCCC(=O)CC [3-Hexanone]
Reduction Activity ([4]; substrate 10 mM): 1.39 U/mg

CC(=O)C(C)O (stereo not drawn) [3-Hydroxy-2-butanone]
Oxidative Activity [1, 6]: 0.55 U/mg | reduction activity of the purified enzyme, in words [4]: high reduction activity | Reduction Activity ([4]; substrate 100 mM): 102 U/mg

C[C@@H](O)[C@@H](C)O [(2R,3R)-2,3-Butanediol]
Oxidative Activity [1, 6]: 82.1 U/mg | Activity, E. coli HB101 (pSE-HOG) ([3]; substrate 100 mM): 0.72 U/mg

C[C@H](O)[C@H](C)O [(2S,3S)-2,3-Butanediol]
Oxidative Activity [1, 6]: 19.4 U/mg | Activity, E. coli HB101 (pSE-HOG) ([3]; substrate 100 mM): 0.12 U/mg

OCC[C@@H](O)CO [(R)-1,2,4-Butanetriol]
oxidative (dehydrogenation) activity of the purified enzyme, in words [1, 5]: significant dehydrogenation activity | Oxidative Activity [1, 6]: 3.9 U/mg | dehydrogenation (oxidative) activity of E. coli HB101 (pSE-HOG), in words [3]: significant dehydrogenation activity | Activity, E. coli HB101 (pSE-HOG) ([3]; substrate 100 mM): 0.15 U/mg

C[C@@H](O)CO [(R)-1,2-Propanediol]
Oxidative Activity [1, 6]: 89.2 U/mg | Activity, E. coli HB101 (pSE-420D) [2]: <0.1 U/mg | Activity, E. coli HB101 (pSE-HOG) ([3]; substrate 100 mM): 0.80 U/mg

CCCCCC[C@@H](O)CO [(R)-1,2-octanediol]
(R)-1,2-octanediol dehydrogenase activity per 1 mg of the purified protein ([1]; per 1 mg purified protein, 5 mM substrate, 2 mM NAD+, pH 8.0, 25° C.): ≥ 60 U

OCC[C@H](O)CO [(S)-1,2,4-Butanetriol]
oxidative (dehydrogenation) activity of the purified enzyme, in words [1, 5]: no activity was seen | dehydrogenation (oxidative) activity of E. coli HB101 (pSE-HOG), in words [3]: no activity was seen

C[C@H](O)CO [(S)-1,2-Propanediol]
Oxidative Activity [1, 6]: 36.4 U/mg | Activity, E. coli HB101 (pSE-420D) [2]: <0.1 U/mg | Activity, E. coli HB101 (pSE-HOG) ([3]; substrate 100 mM): 0.29 U/mg

CC(=O)CO [Acetol]
reduction activity of the purified enzyme, in words [4]: high reduction activity | Reduction Activity ([4]; substrate 100 mM): 64.9 U/mg

OCc1ccccc1 [Benzyl alcohol]
oxidative (dehydrogenation) activity of the purified enzyme, in words [1, 5]: did not have oxidative activity

O=C1CCCCC1 [Cyclohexanone]
Reduction Activity ([4]; substrate 10 mM): 0.28 U/mg

CCO [Ethanol]
oxidative (dehydrogenation) activity of the purified enzyme, in words [1]: did not have oxidative activity

CC(C)O [Isopropanol]
oxidative (dehydrogenation) activity of the purified enzyme, in words [1, 5]: weak oxidative activity | Oxidative Activity [1, 6]: 1.45 U/mg

CO [Methanol]
oxidative (dehydrogenation) activity of the purified enzyme, in words [1, 5]: did not have oxidative activity

CC(O)C(C)O (stereo not drawn) [meso-2,3-Butanediol]
Oxidative Activity [1, 6]: 160 U/mg | Activity, E. coli HB101 (pSE-420D) [2]: <0.1 U/mg | Activity, E. coli HB101 (pSE-HOG) ([3]; substrate 100 mM): 1.17 U/mg

CCCCCCO [n-Hexanol]
oxidative (dehydrogenation) activity of the purified enzyme, in words [1, 5]: did not have oxidative activity
